Test: in vivo
Conditions: rat, po, 20 mg/kg
Experimental: Chromatographic Conditions: • Column: Synergi Fusion-RP 80, 2×50 mm, 4 microns
Mobile Phase: • Channel A: 13.3 mM ammonium formate/6.7 mM formic acid in water • Channel B: 6 mM ammonium formate/3 mM formic acid in water/acetonitrile (1/9, v/v)
• Plot of the curve/obtaining the plasma profile=plasma concentration as a function of the time post administration

AUC: 7190 ng·h/mL
Cmax: 2280 ng/mL
Tmax: 30 min
SMILES: CC(C)Cc1ccc(C(C)C(=O)O)cc1 (stereo not drawn) [IBU alone, ibuprofen]
